Experimental data published in PubChem BioAssay (NCI).
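Cells were grown in 96-well plates and exposed to each compound for 48 hours at five concentrations; endpoints were interpolated linearly between bracketing concentrations, or set to the highest concentration if not reached. At the TGI there is no net growth.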

Tests used:
Experiment in all cases: NCI tumour cell line growth inhibition, 48 h
DLD-1 colon = system: DLD-1 colon
XF 498 CNS = system: XF 498 CNS
HOP-18 NSCLC = system: HOP-18 NSCLC
SNB-78 CNS = system: SNB-78 CNS
LXFL 529 NSCLC = system: LXFL 529 NSCLC
KM20L2 colon = system: KM20L2 colon
RXF-631 renal = system: RXF-631 renal
SN12K1 renal = system: SN12K1 renal
P388 leukemia = system: P388 leukemia
P388/ADR leukemia = system: P388/ADR leukemia

SMILES | TGI (DLD-1 colon) | TGI (XF 498 CNS) | TGI (HOP-18 NSCLC) | TGI (SNB-78 CNS) | TGI (LXFL 529 NSCLC) | TGI (KM20L2 colon) | TGI (RXF-631 renal) | TGI (SN12K1 renal) | TGI (P388 leukemia) | TGI (P388/ADR leukemia)
CCOC(=O)/C(=C/c1ccco1)P(=O)(OCC)OCC | > 100 µM | > 100 µM | > 100 µM | > 100 µM | > 100 µM | – | – | – | – | –
C=C1CC2C(=O)N(c3ccccc3)C(=O)C2CC1n1[nH]c(=O)n(Cc2ccccc2)c1=O (stereo not drawn) | > 100 µM | > 100 µM | > 100 µM | > 100 µM | > 100 µM | > 100 µM | – | – | – | –
O=C(c1ccccc1)[C@H]1Nc2cnccc2C2c3ccccc3CC21 (stereo partly drawn) | > 80.7 µM | 64.4 µM | 45.6 µM | > 79.8 µM | 19.7 µM | 57.3 µM | > 100 µM | – | – | –
COc1cc(CCCOC2OC(COC3OCC(O)C(O)C3O)C(O)C(O)C2O)cc2cc(-c3ccc4c(c3)OCO4)oc12 (stereo not drawn) | > 175 µM | > 175 µM | – | > 175 µM | – | > 175 µM | – | > 175 µM | > 175 µM | > 175 µM
O=c1cc(-c2ccccc2F)[nH]c2cc3c(cc12)OCO3 | 2.82 µM | 91.7 µM | 61.1 µM | > 100 µM | 16.5 µM | – | – | – | – | –
Cc1cc(C)nc(NS(=O)(=O)c2ccc(Nc3c4ccccc4nc4c(C(=O)N5CCN(CCOS(C)(=O)=O)CC5)ccc(Cl)c34)cc2)n1 | > 100 µM | > 100 µM | – | > 100 µM | – | > 100 µM | > 100 µM | – | – | –
NC(=O)NC(=NCc1ccccc1)NCc1ccccc1 | > 100 µM | – | – | > 100 µM | > 100 µM | > 100 µM | – | – | – | –
COC(=O)C(=O)C(C(=O)C(=O)Nc1cc([N+](=O)[O-])ccc1C#N)c1nc2ccccc2[nH]c1=O (stereo not drawn) | > 100 µM | > 100 µM | > 100 µM | – | > 100 µM | > 100 µM | > 100 µM | – | – | –
CCC1C(=O)OCc2c1cc1n(c2=O)CCC12OCCO2 (stereo not drawn) | > 100 µM | > 100 µM | – | > 100 µM | > 100 µM | > 100 µM | – | – | – | –
COCC(=O)OC1CCn2c1nc1c2C(=O)C(C)=C(NC(C)=O)C1=O (stereo not drawn) | 28.8 µM | 11.4 µM | 57.2 µM | 4.4 µM | 11.5 µM | 44.3 µM | – | – | – | –
CCOC(=O)C(NC(=O)c1ccc(N=NN(C)C)cc1)C(C)C (stereo not drawn) | > 100 µM | – | – | – | > 100 µM | – | – | – | – | –
